Data as given in ChEMBL document CHEMBL1201862, “PubChem BioAssay data set” (2004).
The source made the active and inactive calls.

Columns and labels:
[1] = cytotoxicity in HeLa cells, dose response, cytotoxicity control, cell-based, 24 h, dry powder, set 2 (AID 651774); type: functional
[2] = cytotoxicity in HepG2 cells, dose response, cytotoxicity control, cell-based, cherry-picked samples (AID 1053183); type: functional
[3] = cytotoxicity in HEK293 cells, dose response, cytotoxicity control, cell-based, cherry-picked samples (AID 1053185); type: functional
[4] = target: 1-phosphatidylinositol 4,5-bisphosphate phosphodiesterase gamma-1 (Homo sapiens, UniProt P19174); assay: Counterscreen for inhibitors of phospholipase C isozymes (PLC-B3): Fluorescence-based biochemical high throughput dose response assay to identify inhibitors of phospholipase C isozymes (PLC-gamma1).
[5] = target: 1-phosphatidylinositol 4,5-bisphosphate phosphodiesterase beta-3 (Homo sapiens, UniProt Q01970); assay: Fluorescence-based biochemical high throughput dose response assay to identify inhibitors of phospholipase C isozymes (PLC-B3).
[6] = target: T1, Microphthalmia-associated transcription factor (Homo sapiens, UniProt O75030); assay: TRPM1 promoter luciferase signal decrease, dose response, MITF inhibitor project, cell-based, SK-MEL-5, cherry-picked, set 3 (AID 493073); type: functional
T1 sequence (O75030 whole entry): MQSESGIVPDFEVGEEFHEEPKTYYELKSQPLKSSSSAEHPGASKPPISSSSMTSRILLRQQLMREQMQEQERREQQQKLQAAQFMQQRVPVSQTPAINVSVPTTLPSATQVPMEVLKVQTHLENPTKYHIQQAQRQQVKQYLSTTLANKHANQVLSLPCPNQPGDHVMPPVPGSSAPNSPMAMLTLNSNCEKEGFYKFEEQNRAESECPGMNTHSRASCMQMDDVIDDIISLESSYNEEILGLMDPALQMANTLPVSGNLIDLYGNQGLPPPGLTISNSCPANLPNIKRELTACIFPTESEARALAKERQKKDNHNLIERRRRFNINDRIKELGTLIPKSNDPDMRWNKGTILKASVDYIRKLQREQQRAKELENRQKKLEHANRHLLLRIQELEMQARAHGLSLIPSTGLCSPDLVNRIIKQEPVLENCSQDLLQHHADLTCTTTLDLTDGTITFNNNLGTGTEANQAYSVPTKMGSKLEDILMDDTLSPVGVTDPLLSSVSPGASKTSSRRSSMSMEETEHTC

[7] = target: Matrix metalloproteinase-14 (Homo sapiens, UniProt P50281); assay: Dose Response confirmation of uHTS hits for a small molecule inhibitors of MT1-MMP activation in a fluorescence assay set 1.; type: functional
[8] = target: Cytochrome P450 3A4 (Homo sapiens, UniProt P08684);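 also: CYP3A4 tested as one member of a cytochrome P450 panel screen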
[9] = test system: Vero; assay: Vero cell toxicity, dose response, cytotoxicity control, plate reader, cherry-pick samples (AID 687020); type: functional, cell-based; conditions: Chlorocebus sabaeus
[10] = Counterscreen for […] of the human trace amine associated receptor 1 (TAAR1): Fluorescence-based cell-based high throughput dose response assay to identify nonselective Ga16 agonists.; type: functional
[11] = target: T2, Trace amine-associated receptor 1 (Homo sapiens, UniProt Q96RJ0); assay: Fluorescence-based cell-based high throughput dose response assay to identify antagonists of the human trace amine associated receptor 1 (TAAR1).; type: functional
T2 sequence (Q96RJ0 whole entry): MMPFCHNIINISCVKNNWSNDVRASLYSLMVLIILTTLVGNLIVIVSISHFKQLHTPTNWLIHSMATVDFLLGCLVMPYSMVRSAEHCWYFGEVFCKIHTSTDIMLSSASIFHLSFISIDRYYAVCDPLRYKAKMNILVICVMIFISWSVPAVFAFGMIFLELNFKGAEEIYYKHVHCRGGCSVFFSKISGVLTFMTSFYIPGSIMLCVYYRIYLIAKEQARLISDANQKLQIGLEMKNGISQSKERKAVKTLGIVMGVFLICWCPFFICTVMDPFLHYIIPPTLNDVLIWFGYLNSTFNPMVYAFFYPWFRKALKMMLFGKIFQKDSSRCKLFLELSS

[12] = Counterscreen for antagonists of the human trace amine associated receptor 1 (hTAAR1): Fluorescence-based cell-based high throughput dose response assay to identify nonselective Ga16 antagonists.; type: functional
[13] = target: T2, Trace amine-associated receptor 1; assay: Counterscreen for antagonists of the human trace amine associated receptor 1 (hTAAR1): Fluorescence-based cell-based high throughput dose response assay to identify TAAR1 Agonists.; type: functional
[14] = intracellular Trypanosoma cruzi inhibitors in host cells – cell-based, plate reader, cherry-pick samples, set 3, dose response (AID 651818); type: functional;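 also: compounds incubated with infected cells for about four days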
[15] = T. cruzi growth inhibition in host cells, dose response, cell-based, plate reader, dry powder, set 2 (AID 652275); type: functional
[16] = T. cruzi intracellular amastigote growth inhibition, dose response, imaging, CA-I/72 strain, bovine embryo skeletal muscle, dry powder (AID 651885); type: functional, cell-based
[17] = target: COUP transcription factor 2 (Homo sapiens, UniProt P24468); assay: Luminescence-based cell-based high throughput dose response assay to identify inhibitors of COUP-TFII (NR2F2).; type: functional;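 also: HEK293 cells transiently cotransfected with COUP-TFII expression vector and reporter; luciferase reporter luminescence driven by COUP-TFII from the pX2-168 reporter plasmid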
[18] = test system: HEK293; assay: HEK293T cell cytotoxicity, dose response, cytotoxicity control, ATP luminescence, cherry-pick samples (AID 687005); type: functional, cell-based; conditions: Homo sapiens;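 also: cells exposed to compound for 48 hours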
[19] = HEK293 Cytotoxicity Assay Measured in Cell-Based System Using Plate Reader - 7071-01_Inhibitor_Dose_CherryPick_Activity_Set2.; type: functional
[20] = target: Lysosomal acid glucosylceramidase (Homo sapiens, UniProt P04062); assay: Dose response cell-based high throughput screening assay to identify enhancers of beta-glucosidase activity. [Related pubchem assays: 784 ]; type: functional
[21] = cells; conditions: A549
[22] = cells; conditions: HEK293
[23] = target: NS3 (Hepatitis C virus, UniProt A3EZJ3); assay: HCV NS3 helicase inhibitor potency, dose response, biochemical, fluorescence polarization, ChemBridge library (AID 743264)
[24] = target: Potassium channel subfamily K member 3 (Homo sapiens, UniProt O14649); assay: TASK1 (KCNK3) potassium channel inhibitors, SAR follow-up, CHO cells, FluxOR thallium flux (AID 652212); type: functional
[25] = inhibitors of HIV Env-driven cell fusion, dose response, cherry-pick (AID 652057); type: functional, cell-based
[26] = CEM21 lymphoblast cell cytotoxicity, dose response, cytotoxicity control for viral fusion inhibitor project, CellTiter-Glo luminescence, cherry-picked (AID 652042); type: functional, cell-based;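 also: potency for signal decrease meaning cytotoxicity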
[27] = off-target signal loss in HeLa-CEM21 co-culture – HeLa F-luc CTL cells, cherry-picked, counter-screen for HIV-1 Env fusion inhibitor project, dose response (AID 652040); type: functional, cell-based;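 also: potency for signal decrease marking cytotoxic or nonspecific inhibition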
[28] = ADAM10 inhibitors, peptide cleavage, dose response, biochemical, QFRET (AID 743254);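 also: ADAM10 enzyme with the DM2 quenched FRET peptide as substrate; EDANS fluorescence gain as the protease cuts the substrate; inhibitor potency against ADAM10 proteolytic activity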
[29] = target: Disintegrin and metalloproteinase domain-containing protein 17 (Homo sapiens, UniProt P78536); assay: ADAM17 protease inhibitors, dose response, counter-screen for ADAM10 exosite inhibitor project, biochemical, quenched FRET substrate (AID 743253)
Disintegrin and metalloproteinase domain-containing protein 17, sequence (P78536 whole entry, the tested form may be a part): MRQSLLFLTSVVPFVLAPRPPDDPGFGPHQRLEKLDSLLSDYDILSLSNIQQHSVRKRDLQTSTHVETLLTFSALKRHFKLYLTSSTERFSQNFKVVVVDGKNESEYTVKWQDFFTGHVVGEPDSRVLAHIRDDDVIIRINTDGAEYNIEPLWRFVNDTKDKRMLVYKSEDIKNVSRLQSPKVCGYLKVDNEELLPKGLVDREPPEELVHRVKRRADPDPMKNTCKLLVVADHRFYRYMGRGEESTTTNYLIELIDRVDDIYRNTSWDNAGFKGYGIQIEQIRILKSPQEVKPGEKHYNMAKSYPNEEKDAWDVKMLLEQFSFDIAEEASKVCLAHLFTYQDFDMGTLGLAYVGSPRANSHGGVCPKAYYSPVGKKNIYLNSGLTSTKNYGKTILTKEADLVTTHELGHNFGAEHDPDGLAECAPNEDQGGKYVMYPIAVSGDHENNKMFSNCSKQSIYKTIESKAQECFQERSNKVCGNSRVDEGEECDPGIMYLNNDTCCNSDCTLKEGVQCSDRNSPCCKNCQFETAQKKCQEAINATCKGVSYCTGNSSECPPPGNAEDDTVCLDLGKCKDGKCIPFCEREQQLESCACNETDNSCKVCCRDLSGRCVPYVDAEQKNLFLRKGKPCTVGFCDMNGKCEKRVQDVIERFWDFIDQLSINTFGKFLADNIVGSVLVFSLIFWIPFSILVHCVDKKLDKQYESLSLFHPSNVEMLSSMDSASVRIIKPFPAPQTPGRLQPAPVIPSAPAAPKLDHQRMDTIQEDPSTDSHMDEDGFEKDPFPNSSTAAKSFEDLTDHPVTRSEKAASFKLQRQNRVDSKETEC

COUP transcription factor 2, sequence (P24468 whole entry): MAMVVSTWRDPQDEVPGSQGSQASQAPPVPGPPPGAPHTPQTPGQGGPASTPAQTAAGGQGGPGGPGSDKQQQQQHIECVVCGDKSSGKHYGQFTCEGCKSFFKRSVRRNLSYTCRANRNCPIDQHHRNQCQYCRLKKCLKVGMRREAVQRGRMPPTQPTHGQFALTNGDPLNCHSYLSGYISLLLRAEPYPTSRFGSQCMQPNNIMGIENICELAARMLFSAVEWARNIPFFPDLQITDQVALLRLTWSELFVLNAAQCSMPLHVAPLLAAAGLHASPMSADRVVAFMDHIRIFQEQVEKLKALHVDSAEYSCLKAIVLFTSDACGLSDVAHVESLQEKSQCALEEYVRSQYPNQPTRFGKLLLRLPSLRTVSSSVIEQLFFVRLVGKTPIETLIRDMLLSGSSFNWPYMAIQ
NS3, sequence (A3EZJ3 whole entry): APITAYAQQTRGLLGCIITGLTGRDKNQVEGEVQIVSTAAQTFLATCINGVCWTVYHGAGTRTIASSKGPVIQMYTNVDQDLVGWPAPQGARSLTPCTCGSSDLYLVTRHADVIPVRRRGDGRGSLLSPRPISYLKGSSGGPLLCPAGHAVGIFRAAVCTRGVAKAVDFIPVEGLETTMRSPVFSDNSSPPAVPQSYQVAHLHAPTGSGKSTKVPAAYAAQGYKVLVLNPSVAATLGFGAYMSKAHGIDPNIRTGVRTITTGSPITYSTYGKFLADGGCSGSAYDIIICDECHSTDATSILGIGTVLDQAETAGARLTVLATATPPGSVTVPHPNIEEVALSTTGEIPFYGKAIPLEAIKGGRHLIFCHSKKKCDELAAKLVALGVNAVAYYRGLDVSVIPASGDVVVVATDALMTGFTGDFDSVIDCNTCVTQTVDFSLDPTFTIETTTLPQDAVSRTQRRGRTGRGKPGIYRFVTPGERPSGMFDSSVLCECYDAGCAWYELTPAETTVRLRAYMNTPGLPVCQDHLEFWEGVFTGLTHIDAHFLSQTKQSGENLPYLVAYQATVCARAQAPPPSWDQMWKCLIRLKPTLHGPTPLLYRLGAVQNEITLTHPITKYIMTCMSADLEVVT
Cytochrome P450 3A4, sequence (P08684 whole entry): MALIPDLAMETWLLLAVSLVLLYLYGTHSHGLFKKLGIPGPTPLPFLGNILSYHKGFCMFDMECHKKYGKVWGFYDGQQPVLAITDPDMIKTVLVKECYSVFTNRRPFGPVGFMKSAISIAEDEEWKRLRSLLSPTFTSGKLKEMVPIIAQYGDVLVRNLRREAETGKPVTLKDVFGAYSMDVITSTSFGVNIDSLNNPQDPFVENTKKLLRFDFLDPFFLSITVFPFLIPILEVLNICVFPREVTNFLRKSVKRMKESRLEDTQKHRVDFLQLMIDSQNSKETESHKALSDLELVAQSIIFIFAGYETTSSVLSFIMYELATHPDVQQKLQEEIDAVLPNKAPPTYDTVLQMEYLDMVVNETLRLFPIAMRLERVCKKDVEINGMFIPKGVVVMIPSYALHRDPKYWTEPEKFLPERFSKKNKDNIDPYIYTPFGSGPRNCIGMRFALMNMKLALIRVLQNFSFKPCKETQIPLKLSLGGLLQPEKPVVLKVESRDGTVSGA
Lysosomal acid glucosylceramidase, sequence (P04062 whole entry): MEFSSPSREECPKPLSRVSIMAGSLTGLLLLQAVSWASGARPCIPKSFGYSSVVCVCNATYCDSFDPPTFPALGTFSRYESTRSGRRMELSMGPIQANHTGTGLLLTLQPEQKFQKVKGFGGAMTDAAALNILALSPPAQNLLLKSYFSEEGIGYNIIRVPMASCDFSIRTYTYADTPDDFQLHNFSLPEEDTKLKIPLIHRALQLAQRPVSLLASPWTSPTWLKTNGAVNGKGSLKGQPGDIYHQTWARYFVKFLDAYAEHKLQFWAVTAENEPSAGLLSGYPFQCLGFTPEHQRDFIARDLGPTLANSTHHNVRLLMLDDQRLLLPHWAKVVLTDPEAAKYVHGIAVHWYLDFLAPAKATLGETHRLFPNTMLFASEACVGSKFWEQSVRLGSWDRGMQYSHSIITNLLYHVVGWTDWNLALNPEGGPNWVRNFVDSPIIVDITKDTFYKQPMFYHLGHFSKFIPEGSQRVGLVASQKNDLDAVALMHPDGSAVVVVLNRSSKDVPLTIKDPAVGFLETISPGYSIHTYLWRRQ
1-phosphatidylinositol 4,5-bisphosphate phosphodiesterase beta-3, sequence (Q01970 whole entry): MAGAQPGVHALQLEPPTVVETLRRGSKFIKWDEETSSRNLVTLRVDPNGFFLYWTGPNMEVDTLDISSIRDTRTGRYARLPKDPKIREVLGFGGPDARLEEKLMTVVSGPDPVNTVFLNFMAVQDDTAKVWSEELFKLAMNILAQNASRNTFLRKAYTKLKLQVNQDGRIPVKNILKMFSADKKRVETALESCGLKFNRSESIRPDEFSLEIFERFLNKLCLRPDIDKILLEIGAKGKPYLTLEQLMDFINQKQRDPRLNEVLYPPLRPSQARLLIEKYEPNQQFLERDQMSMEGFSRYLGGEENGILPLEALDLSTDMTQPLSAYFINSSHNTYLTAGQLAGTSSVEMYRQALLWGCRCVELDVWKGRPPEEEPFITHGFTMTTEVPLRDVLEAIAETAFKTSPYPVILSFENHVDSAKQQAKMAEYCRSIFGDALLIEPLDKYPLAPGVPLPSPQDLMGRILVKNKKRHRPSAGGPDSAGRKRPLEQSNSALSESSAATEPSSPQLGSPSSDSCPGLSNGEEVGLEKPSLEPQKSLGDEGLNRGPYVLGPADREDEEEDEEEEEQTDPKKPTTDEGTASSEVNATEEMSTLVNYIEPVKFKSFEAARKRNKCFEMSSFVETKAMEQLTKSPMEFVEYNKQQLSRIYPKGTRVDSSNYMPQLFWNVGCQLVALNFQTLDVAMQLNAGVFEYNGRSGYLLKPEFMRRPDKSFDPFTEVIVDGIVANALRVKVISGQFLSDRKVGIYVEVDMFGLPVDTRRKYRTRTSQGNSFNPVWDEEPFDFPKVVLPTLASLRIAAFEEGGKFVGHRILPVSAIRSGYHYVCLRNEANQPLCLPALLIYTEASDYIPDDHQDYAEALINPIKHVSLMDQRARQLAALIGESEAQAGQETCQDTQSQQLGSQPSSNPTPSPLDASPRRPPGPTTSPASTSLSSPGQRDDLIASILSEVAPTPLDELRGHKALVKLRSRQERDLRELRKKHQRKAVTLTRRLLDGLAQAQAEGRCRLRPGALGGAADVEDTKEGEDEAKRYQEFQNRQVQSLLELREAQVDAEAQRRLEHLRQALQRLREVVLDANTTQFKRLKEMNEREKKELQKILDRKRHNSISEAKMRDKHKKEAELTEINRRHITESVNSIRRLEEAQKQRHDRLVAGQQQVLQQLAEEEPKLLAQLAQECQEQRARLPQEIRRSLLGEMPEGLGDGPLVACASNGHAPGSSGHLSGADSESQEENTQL
Potassium channel subfamily K member 3, sequence (O14649 whole entry, the tested form may be a part): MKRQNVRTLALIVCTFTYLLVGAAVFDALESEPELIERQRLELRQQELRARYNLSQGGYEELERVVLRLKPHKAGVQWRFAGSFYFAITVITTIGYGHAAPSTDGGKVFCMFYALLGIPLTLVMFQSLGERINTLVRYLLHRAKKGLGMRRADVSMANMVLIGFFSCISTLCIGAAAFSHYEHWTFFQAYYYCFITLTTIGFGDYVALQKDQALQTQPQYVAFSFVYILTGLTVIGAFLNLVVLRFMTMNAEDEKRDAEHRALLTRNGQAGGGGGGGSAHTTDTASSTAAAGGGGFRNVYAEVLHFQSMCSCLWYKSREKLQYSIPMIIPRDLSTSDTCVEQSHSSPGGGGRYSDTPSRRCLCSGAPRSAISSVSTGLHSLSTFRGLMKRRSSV

O=C(Nc1ccc(-c2ccccc2)cc1)NC1CCCC1
AC50 [1]: 68 µM (active)

N#Cc1cccc(-c2ccc([C@H]3[C@@H]4CN(C(=O)Nc5ccc(C(F)(F)F)cc5)C[C@H]3N4)cc2)c1
AC50 [2]: 36.1 µM (active) | AC50 [3]: > 52 µM (inactive)

CCOC(=O)/C(C#N)=C1/C=CN(C)C=N1
IC50 [4]: > 123 µM (inactive) | IC50 [5]: > 123 µM (inactive)

CC[n+]1c(/C=C/N(C)c2ccccc2)sc2ccc(Cl)cc21
AC50 [6]: 9.07 µM (active) | IC50 [7]: > 80 µM (inactive) | AC50 [8]: 17.8 µM (inconclusive)

CCCN(CC(=O)Nc1ccccc1C)C(=O)C1CCN(S(=O)(=O)c2ccc(C)c(C)c2)CC1
AC50 [9]: 13.2 µM (active)

COC(=O)Cc1nnn2c1[C@H](C)[C@H](c1ccccc1Br)OCC2
EC50 [10]: > 29.9 µM (inactive) | IC50 [11]: 1.28 µM (active) | IC50 [12]: > 29.9 µM (inactive) | EC50 [13]: > 29.9 µM (inactive)

COc1ccc(CN(C)C[C@@H]2Oc3c(NC(=O)c4ccncc4)cccc3C(=O)N([C@@H](C)CO)C[C@H]2C)cc1
AC50 [14]: 0.388 µM (active) | AC50 [15]: 0.0382 µM (active) | IC50 [16]: 0.18 µM (active)

c1ccc2cc3[nH]c(CNc4nc(N5CCOCC5)nc5c4ncn5-c4ccsc4)nc3cc2c1
IC50 [17]: 6.35 µM (active)

COc1ccccc1C#Cc1ccc2c(c1)O[C@@H](CN(C)C(C)=O)[C@@H](C)CN([C@H](C)CO)S2(=O)=O
AC50 [18]: 9.59 µM (active) | AC50 [19]: 9.59 µM (active)

Cc1cc2c(C)cc(=O)oc2c2c1NCCC2
EC50 [20]: > 50 µM (not active) | AC50 [21]: > 52 µM (inactive) | AC50 [22]: > 52 µM (inactive)

Cc1ccc(C)n1-c1cc(C(=O)O)ccc1O
IC50 [23]: 50.4 µM (active)

Cc1cccc(C(=O)Nc2ccccc2C(=O)Nc2ccccc2)c1
IC50 [24]: 5.59 µM (active)

COc1cc2c(cc1OC)C(=O)N1[C@H]3c4cc(Cl)ccc4OC[C@@H]3[C@H](c3ccccc3)[C@]1(C)C(=O)N2
AC50 [25]: 8.86 µM (active) | AC50 [26]: 53.4 µM (active) | AC50 [27]: 21 µM (active) | IC50 [28]: > 69.5 µM (inactive) | IC50 [29]: > 69.5 µM (inactive)
